According to US8293786B2 (Alltranz Inc., priority 2007, dated 2012):

Tests used:
[1] = Plasma stability of cannabidiol prodrugs (bioconversion to parent drug); type: in vitro ADME; details: Table 20, di-prodrug in plasma; for % mono-prodrug at time (h): mono-prodrug formed
Protocol: An approximated 1 mg/mL stock solution of each prodrug was prepared in 100 μL of ethanol and 900 μL of acetonitrile. Ten (10) μL of stock was spiked into 1 mL of plasma and vortexed. The samples were kept sealed in an amber vial and samples were obtained to analyze for bioconversion to parent drug.

[2] = tested on: human abdominal skin; test: In vitro human skin permeation and skin disposition, flow-through diffusion cells (Examples 2, 2A, 2B); type: in vitro ADME; details: for Flux enhancement: total cannabidiol versus cannabidiol
In short: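 Dermatomed (~200 μm) frozen human abdominal skin was mounted in flow-through cells at 32° C (0.95 cm^2), stratum corneum to donor. Donors were 0.10 mL 45:4:1 PG:H2O:IPM solution or 50 μL gel; receiver was 40% PEG 400 (HEPES-Hanks pH 7.4 or aqueous) with gentamicin at 0.8 mL/h. Samples were taken every 3 h for 24-42 h; skin accumulation was expressed as μmol/g wet tissue.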

[3] = Table 19, gel formulation, 40% aqueous PEG 400 receiver fluid, as applied compound (CBD or intact prodrug)
[4] = Table 19, gel formulation, 40% aqueous PEG 400 receiver fluid, mono-prodrug (ALL00150) from applied di-prodrug
[5] = Table 19, gel formulation, 40% aqueous PEG 400 receiver fluid, prodrug applied, as total cannabidiol equivalents
[6] = Table 18, 90:8:2 PG:H2O:IPM donor solution, 40% aqueous PEG 400 receiver fluid, CBD from applied prodrug
[7] = Table 18, 90:8:2 PG:H2O:IPM donor solution, 40% aqueous PEG 400 receiver fluid, mono-prodrug from applied di-prodrug
[8] = Table 18, 90:8:2 PG:H2O:IPM donor solution, 40% aqueous PEG 400 receiver fluid, prodrug applied, as total cannabidiol equivalents
[9] = Table 16, 90:8:2 PG:H2O:IPM donor solution, 60/40 Hanks'/PEG 400 receiver fluid, as applied compound (CBD or intact prodrug)
[10] = Table 17, 90:8:2 PG:H2O:IPM donor solution, 40% aqueous PEG 400 receiver fluid, as applied compound (CBD or intact prodrug)
[11] = Table 18, 90:8:2 PG:H2O:IPM donor solution, 40% aqueous PEG 400 receiver fluid, as applied compound (CBD or intact prodrug)
[12] = Table 21, gel formulation, 40% aqueous PEG 400 receiver fluid, as applied compound (CBD or intact prodrug)
[13] = Table 23, gel formulation, 40% aqueous PEG 400 receiver fluid, as applied compound (CBD or intact prodrug)

Q: Which “% mono-prodrug at time (h)” value ([1]; 1 h) does the source give for `C=C(C)[C@@H]1CCC(C)=C[C@H]1c1c(OC(=O)CCN(C)C)cc(CCCCC)cc1OC(=O)CCN(C)C` [ALL00101, CBD bis(3-(dimethylamino)propionate)] here?
A: 22%

Q: And the “% mono-prodrug at time (h)” value ([1]; 20 h)?
A: 11%

Q: And the “% Di-prodrug at time (h)” value ([1]; 0 h)?
A: 100%

Q: What about the “% Di-prodrug at time (h)” value ([1]; 1 h) of the same molecule?
A: 75%

Q: And the “% Di-prodrug at time (h)” value ([1]; 20 h)?
A: 1%

Q: What about the “24 h skin conc” value ([2]; Table 19, gel formulation, 40% aqueous PEG 400 receiver fluid, CBD from applied prodrug) of the same molecule?
A: 13.2 ± 10.4 µmol/g

Q: And the “24 h skin conc” value [2, 3]?
A: 0.8 ± 0.6 µmol/g

Q: And the “24 h cumulative amt” value [2, 4]?
A: 8.4 ± 1.3 nmol

Q: What about the “24 h skin conc” value [2, 4] of the same molecule?
A: 34.7 ± 27.7 µmol/g

Q: What about the Flux [2, 4] of the same molecule?
A: 0.4 ± 0.03 nmol/cm^2/h

Q: What about the Lag time [2, 4] of the same molecule?
A: 2.9 ± 1.9 h

Q: What about the “24 h cumulative amt” value [2, 5] of the same molecule?
A: 8.4 ± 1.3 nmol

Q: What about the “24 h skin conc” value [2, 5] of the same molecule?
A: 48.7 ± 38.6 µmol/g

Q: And the Flux [2, 5]?
A: 0.4 ± 0.03 nmol/cm^2/h

Q: What about the Lag time [2, 5] of the same molecule?
A: 2.9 ± 1.9 h

Q: And the Flux enhancement ([2]; Table 19, gel formulation, 40% aqueous PEG 400 receiver fluid)?
A: 0.52

Q: And the “detected in the skin as” value ([2]; in gel formulation)?
A: trace small amounts of intact prodrug but mostly as mono-substituted prodrug, ALL00150, and cannabidiol

Q: And the “flux compared to cannabidiol” value ([2]; in gel formulation)?
A: did not increase the flux

Q: And the “lag time compared to cannabidiol” value ([2]; in gel formulation)?
A: decreased

Q: And the “permeated through the skin as” value ([2]; in gel formulation)?
A: mono-substituted prodrug (ALL00150) only

Q: And the “total skin concentrations compared to cannabidiol” value ([2]; in gel formulation)?
A: higher

Q: For `C=C(C)C1CCC(C)=CC1c1c(OC(=O)CN(C)C)cc(CCCCC)cc1OC(=O)CN(C)C` (centres unmarked) [ALL00105, CBD bis(N,N-dimethylglycinate)], which “% mono-prodrug at time (h)” value ([1]; 2 h) is on record?
A: 0%

Q: What about the “% mono-prodrug at time (h)” value ([1]; 4 h) of the same molecule?
A: 0%

Q: What about the “% mono-prodrug at time (h)” value ([1]; 22 h) of the same molecule?
A: 0%

Q: And the “% mono-prodrug at time (h)” value ([1]; 24 h)?
A: 0%

Q: And the “% Di-prodrug at time (h)” value ([1]; 0 h)?
A: 100%

Q: What about the “% Di-prodrug at time (h)” value ([1]; 2 h) of the same molecule?
A: 92%

Q: And the “% Di-prodrug at time (h)” value ([1]; 4 h)?
A: 88%

Q: What about the “% Di-prodrug at time (h)” value ([1]; 22 h) of the same molecule?
A: 58%

Q: And the “% Di-prodrug at time (h)” value ([1]; 24 h)?
A: 55%

Q: What about the “30 h cumulative amt” value [2, 6] of the same molecule?
A: 6.9 ± 0.0 nmol

Q: And the “30 h skin conc” value [2, 6]?
A: 30.0 ± 0.0 µmol/g

Q: What about the Flux [2, 6] of the same molecule?
A: 0.6 ± 0.0 nmol/cm^2/h

Q: And the Lag time [2, 6]?
A: 18.6 ± 0.0 h

Q: And the “30 h cumulative amt” value [2, 7]?
A: 15.4 ± 0.0 nmol

Q: What about the “30 h skin conc” value [2, 7] of the same molecule?
A: 40.2 ± 0.0 µmol/g

Q: And the Flux [2, 7]?
A: 1.0 ± 0.0 nmol/cm^2/h

Q: What about the Lag time [2, 7] of the same molecule?
A: 13.0 ± 0.0 h

Q: And the “30 h cumulative amt” value [2, 8]?
A: 22.3 ± 0.0 nmol

Q: And the “30 h skin conc” value [2, 8]?
A: 70.2 ± 0.0 µmol/g

Q: And the Flux [2, 8]?
A: 1.6 ± 0.0 nmol/cm^2/h

Q: And the Lag time [2, 8]?
A: 15.2 ± 0.0 h

Q: What about the Flux enhancement ([2]; Table 18, 90:8:2 PG:H2O:IPM donor solution, 40% aqueous PEG 400 receiver fluid) of the same molecule?
A: 0.19

Q: What about the “detected in the skin as” value ([2]; in donor solution) of the same molecule?
A: mono-substituted prodrug, ALL00148, and cannabidiol

Q: What about the “flux compared to cannabidiol” value ([2]; in donor solution) of the same molecule?
A: did not increase the flux

Q: What about the “lag time compared to cannabidiol” value ([2]; in donor solution) of the same molecule?
A: not decreased

Q: What about the “permeated through the skin as” value ([2]; in donor solution) of the same molecule?
A: mono-substituted prodrug (ALL00148) and cannabidiol

Q: What about the “total skin concentrations compared to cannabidiol” value ([2]; in donor solution) of the same molecule?
A: higher

Q: Which “42 h cumulative amt” value [2, 9] does the source give for `C=C(C)[C@@H]1CCC(C)=C[C@H]1c1c(O)cc(CCCCC)cc1O` [cannabidiol, reference compound] here?
A: 154.4 ± 39.5 nmol

Q: And the “42 h skin conc” value [2, 9]?
A: 19.0 ± 12.8 µmol/g

Q: And the Flux [2, 9]?
A: 6.5 ± 0.7 nmol/cm^2/h

Q: What about the “30 h cumulative amt” value [2, 10] of the same molecule?
A: 51.6 ± 9.1 nmol

Q: What about the “30 h skin conc” value [2, 10] of the same molecule?
A: 10.5 ± 6.5 µmol/g

Q: And the Flux [2, 10]?
A: 3.9 ± 0.2 nmol/cm^2/h

Q: What about the “30 h cumulative amt” value [2, 11] of the same molecule?
A: 148.6 ± 54.0 nmol

Q: What about the “30 h skin conc” value [2, 11] of the same molecule?
A: 21.2 ± 4.8 µmol/g

Q: And the Flux [2, 11]?
A: 8.2 ± 2.6 nmol/cm^2/h

Q: What about the “24 h cumulative amt” value [2, 3] of the same molecule?
A: 12.3 ± 8.1 nmol

Q: What about the “24 h skin conc” value [2, 3] of the same molecule?
A: 9.0 ± 2.2 µmol/g

Q: What about the Flux [2, 3] of the same molecule?
A: 0.8 ± 0.4 nmol/cm^2/h

Q: What about the Lag time [2, 3] of the same molecule?
A: 8.5 ± 2.1 h

Q: What about the “24 h cumulative amt” value [2, 12] of the same molecule?
A: 6.5 ± 3.8 nmol

Q: What about the “24 h skin conc” value [2, 12] of the same molecule?
A: 15.6 ± 4.2 µmol/g

Q: What about the Flux [2, 12] of the same molecule?
A: 0.4 ± 0.2 nmol/cm^2/h

Q: What about the Lag time [2, 12] of the same molecule?
A: 5.3 ± 1.7 h

Q: And the “24 h skin conc” value ([2]; Table 22, anhydrous gel formulation, 40% aqueous PEG 400 receiver fluid, as applied compound (CBD or intact prodrug))?
A: 3.3 ± 1.3 µmol/g

Q: What about the “24 h cumulative amt” value [2, 13] of the same molecule?
A: 3.0 nmol

Q: What about the “24 h skin conc” value [2, 13] of the same molecule?
A: 27.7 ± 24.6 µmol/g

Q: And the Flux [2, 13]?
A: 0.29 nmol/cm^2/h

Q: What about the Lag time [2, 13] of the same molecule?
A: 12.8 h

Q: What about the “concentrations in the skin, anhydrous gel formulation compared to the ethanol based gel formulation” value ([2]; anhydrous gel versus ethanol based gel) of the same molecule?
A: much lower
